In patent US12295929B2, “Intravenous baclofen formulations and treatment methods” (Allaysis, LLC, priority 2015, dated 2025):

Key:
[1] = Randomized, open-label, 2-way crossover pharmacokinetics and bioavailability study of oral vs intravenous baclofen; format: in vivo, human; conditions: for Cmax: healthy human volunteers; for Cmax / AUC: plasma; for Cmax / AUC0-∞/Dose / AUC: mean ± SD; for AUC: human
Experimental: Twelve healthy human volunteers were recruited. The volunteers were medication free for 48 hours before, during, and 24 hours after the administration of the study drug.
The 12 volunteers participated in a randomized, open-label, 2-way crossover study to compare the pharmacokinetics and bioavailability of oral baclofen with an intravenous baclofen formulation. The oral formulation was a 10 mg baclofen tablet. A single intravenous dose of 5 mg was administered over 15 minutes, using the commercially available 2 mg/mL intrathecal baclofen formulation (Lioresal Intrathecal). Blood samples (6 mL) for the measurement of plasma concentrations of baclofen were collected in blood collection tubes containing K2 ethylenediaminetetraacetic acid at the following times: prior to dosing; at 5, 15, and 30 minutes; and at 1, 2, 4, 6, 8, 10, 12, and 24 hours after drug administration.
Study plasma samples were prepared by adding 50 μL of a 500 μg/mL levetiracetam solution (internal standard) to 250 μL of K2 ethylenediaminetetraacetic acid (EDTA) human plasma. Baclofen and the internal standard were extracted from plasma by precipitating the protein with methanol and drying it under nitrogen at approximately 40° C. The dried residues were reconstituted in 300 μL of a mobile phase consisting of 20 mM ammonium acetate—methanol (75:25) solution. After 1 minute of vortex mixing, the reconstituted sample solution was filtered and injected onto the high-performance liquid chromatograph-mass spectrometer system. Standard curve samples over a range of 20 to 400 ng/mL baclofen and quality control samples containing 30 (low), 80 (medium), and 240 ng/mL (high) baclofen were prepared and analyzed in triplicate along with the study samples. The assay was linear over the range 20-400 ng/mL with a lower limit of quantification of 20 ng/mL.
Baclofen concentration—time data were analyzed using a noncompartmental pharmacokinetic approach with Phoenix software (version 6.2; Pharsight Corporation, Mountain View, CA). The terminal rate constant (λz) was determined from the slope of the terminal log-linear portion of the plasma concentration—time curve, and the terminal half-life (t1/2) was calculated as ln 2/(λz). Maximum plasma concentrations (Cmax) and time to maximum concentration (Tmax) were determined by direct observation of the data. The area under the concentration-time curve to the last nonzero plasma concentration (Clast) that was above half the lower limit of quantification (10 ng/mL) was calculated by the trapezoidal rule and reported as AUClast. The area under the concentration-time curve extrapolated to infinity (AUC0-∞) was calculated as AUClast+(Clast/λz). Mean and standard deviation values for the parameters were also obtained using the descriptive statistics tool in Phoenix version 6.2. A paired t-test was used to determine if statistical differences existed in log normalized, dose-adjusted area under the curve between oral and intravenous arms.

[2] = cited from earlier work

With `NCC(CC(=O)O)c1ccc(Cl)cc1` (racemic) [Baclofen, 4-amino-3-(4-chlorophenyl) butanoic acid] the “time point of observed maximum baclofen concentration” value ([1]; 5 mg IV over 15 minutes) was 5 min, the Cmax ([1]; 5 mg IV over 15 minutes) was 313 ng/mL and the “AUC0-∞/Dose” value ([1]; 5 mg IV) was 141 ± 33 ng·h/mL/mg. The Cmax ([1]; 10 mg oral tablet) was 176 ng/mL, the Tmax ([1]; 10 mg oral tablet, median (min, max)) was 1 h and the “AUC0-∞/Dose” value ([1]; 10 mg oral) was 102 ± 23 ng·h/mL/mg. The AUC ([1]; 5 mg IV) was 593 ± 111 ng·h/mL, the AUC ([1]; 10 mg oral) was 878 ± 199 ng·h/mL and the solubility in water [2] was “slightly soluble”.
